Results reported in patent publication EP0647632A1, “NOVEL BENZ[…]” (YAMANOUCHI PHARMACEUTICAL CO. LTD., priority 1992, dated 1994).

Legend:
[1] = system: Gastric Acid Secretion Stimulated by Pentagastrin; assay: Inhibition of pentagastrin-stimulated gastric acid secretion in Heidenhain pouch dogs, oral administration; format: in vivo, beagle dogs; conditions: pentagastrin 8 µg/kg/hr infusion, test drug oral
Excerpt: (ii) Method of Measurement: Male beagle dogs (7 to 12 kg) fasted overnight was used and subjected to peritoneotomy under GOF anesthesia. After amputating the corpus ventriculi portion parallel to the curvatura ventriculi major, a metal pouch was retained in the suture-closed epigastric region to prepare Heidenhain pouch dogs. The dogs under healthy conditions after two months from the operation were presented to the experiments. Each of the pouch dogs was used at one week intervals.
Pentagastrin was continuously infused (8 µg/kg/hr) into 3 to 5 Heidenhain pouch dogs fasted for 18 hours, and the gastric juice naturally dropped from the pouch was collected at a 15 minute interval. The acid concentration in the gastric juice was calculated from the amount of a 0.05N NaOH required for titrating up to pH of 7.0 using an automatic titration apparatus (Comtite-7, produced by Hiranuma Sangyo), and the product with the amount of the gastric juice was referred to as an acid secretion amount.
Three hours after commencement of the continuous infusion of pentagastrin, a test drug was orally administered, and an inhibitory ratio to the gastric acid secretion at 15 minute intervals was determined to evaluate the effects of the drug.

[2] = system: Gastric Acid Secretion Stimulated by Pentagastrin; assay: Inhibition of pentagastrin-stimulated gastric acid secretion in anesthetized rats with perfused stomach, intravenous administration; format: in vivo, SD species rats; conditions: SD rats, urethane anesthesia, pentagastrin 15 µg/kg/hour i.v., test drug intravenous, dose 0.1 µmol/kg
Excerpt: (i) Method of Measurement: A cannula was inserted into a trachea of rats anesthetized with urethane (1.25 g/kg intraperitoneal administration) and abdomen was incised to expose stomach and duodenum. After ligating the cardiac portion, a polyethylene cannula was set in the forestomach portion. Further, a small incision was given to the duodenum, and a polyethylene cannula was inserted from the incised portion to a direction of the stomach inside. In order to fix the cannula, the pylorus portion was ligated. A physiological saline (adjusted to pH 7.0) was perfused from forestomach portion to the pylorus portion at a rate of 3 ml/minute. The gastric acid secretion was measured by continuously titrating the perfusate by means of a pH-stat (AUT-201, produced by Toa Electronics Ltd.). The continuous titration was performed by titrating with a 25 mM sodium hydroxide solution using a titration end point of pH 7.0. The results were determined as a gastric acid analysis at 10 minutes intervals (µEq/10 minutes). Then, pentagastrin was intravenously administered (15 µg/kg/hour). After injection of pentagastrin, the acid secretion was increased, and 60 minutes after the injection, the acid secretion reached to its maximum value and stabilized. Thereafter, a test drug was intravenously administered, and the gastric acid secretion was measured. From the gastric acid secretion amount after the test drug injection, a gastric acid secretion inhibitory ratio was calculated by taking the maximum value after the pentagastrin injection as 100%. In this test, two species of rats, i.e., Wistar species rats and SD species rats, were used as test animals, but the embodiments obtained by using the SD species rats are described below. The compounds of the present invention show from 9 to 89% gastric acid secretion inhibitory effects by the administration at a dose of 0.1 µmol/kg. The embodiments are shown below.

CCK-B receptor = biological target: T1, CCK-B receptor (Rattus norvegicus, UniProt P30553); assay: Binding activity to CCK-B receptor: displacement of [125I]BH.CCK-8 from rat whole brain membrane sample; design: species or system SD rats; conditions: rat brain membranes, [125I]BH.CCK-8, 25°C, 120 minutes; read-out: CCK-B Binding IC₅₀
T1 construct: freezed at -80°C for storage as a membrane sample; from tissue; host or cells: SD rat whole brain membrane preparation
T1 sequence (P30553 1-452): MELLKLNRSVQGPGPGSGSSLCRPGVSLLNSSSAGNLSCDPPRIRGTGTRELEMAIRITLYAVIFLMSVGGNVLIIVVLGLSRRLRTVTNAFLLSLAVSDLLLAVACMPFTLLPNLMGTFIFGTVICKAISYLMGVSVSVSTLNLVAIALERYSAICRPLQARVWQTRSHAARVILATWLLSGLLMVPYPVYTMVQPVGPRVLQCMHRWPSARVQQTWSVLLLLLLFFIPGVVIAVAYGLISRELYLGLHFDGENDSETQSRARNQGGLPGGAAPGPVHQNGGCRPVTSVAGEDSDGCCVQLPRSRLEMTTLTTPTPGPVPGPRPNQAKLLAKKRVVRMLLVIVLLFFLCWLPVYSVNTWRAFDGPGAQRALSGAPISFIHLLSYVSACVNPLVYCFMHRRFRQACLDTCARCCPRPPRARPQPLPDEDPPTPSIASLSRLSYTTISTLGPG
Protocol: About 100 conscious SD rats were sacrificed by decapitation, and immediately thereafter the whole brain was extracted. The whole brain was homogenized using a Teflon-glass homogenizer in a 0.32M sucrose aqueous solution in a volume of 10 times the whole brain. The resulting homogenate was centrifuged in a cooled centrifugator at 900 × g for 10 minutes, and the supernatant was further centrifuged at 11,500 × g for 15 minutes. The resulting sediment was suspended in a 0.08% Triton X-100 and a 50 mM Tris-HCl buffering solution (pH 7.4). After allowing the suspension to stand for 30 minutes, the suspension was again centrifuged at 11,500 × g for 15 minutes, and the sediment was washed twice with each of 5 mM and 50 mM Tris-HCl buffers by centrifuging operations. The resulting sediment was suspended in a 50 mM Tris-HCl buffer, and freezed at -80°C for storage as a membrane sample.
After thawing the membrane sample at room temperature, it was diluted with a 10 mM HEPES buffer (130 mM NaCl, 5 mM MgCl₂·1mM EGTA, 0.25 mg/ml bacitracin, pH 6.5) and, after incubating at 25°C for 120 minutes in the presence of [¹²⁵I]BH.CCK-8, B/F separation was performed by suction filtration. The non-specific binding was determined in the presence of 1 µM of CCK-8. The amount of the labelled ligand bonded to the receptor was measured by a γ-counter. A Ki (CCK-B) value was determined from a displacement curve of the test compound by taking the maximum binding amount of the labelled ligand to the receptor as 100%.

Cc1ccc(C(=O)CN2C(=O)C(NC(=O)Nc3cccc(N(C)C)c3)N=C(c3ccccc3)c3ccccc32)cc1 (single isomer, unassigned; (+)) [Example 21, (+)-1-[2,3-Dihydro-1-(4'-methylphenacyl)-2-oxo-5-phenyl-1H-1,4-benzodiazepin-3-yl]-3-(3-dimethylaminophenyl)urea]
Gastric Acid Secretion Inhibitory Ratio/Dose ([1]; dose 10 µmol/kg): 90% (10 µmol/kg) | Gastric Acid Secretion Inhibitory Ratio/Dose [2]: 74% (0.1 µmol/kg) | IC50 (CCK-B receptor): 0.16 nM

Cc1ccccc1C(=O)CN1C(=O)[C@H](NC(=O)Nc2cccc(N(C)C)c2)N=C(c2ccccc2)c2ccccc21 [Example 3, (R)-1-[2,3-dihydro-1-(2'-methylphenacyl)-2-oxo-5-phenyl-1H-1,4-benzodiazepin-3-yl]-3-(3-dimethylaminophenyl)urea]
Gastric Acid Secretion Inhibitory Ratio/Dose ([1]; dose 10 µmol/kg): 57% (10 µmol/kg) | Gastric Acid Secretion Inhibitory Ratio/Dose [2]: 63% (0.1 µmol/kg) | IC50 (CCK-B receptor): 0.17 nM

Cc1ccc(C(=O)CN2C(=O)C(NC(=O)Nc3cccc(N(C)C)c3)N=C(c3ccccn3)c3ccccc32)cc1 (stereo not drawn) [Example 35, 1-[2,3-dihydro-1-(4'-methylphenacyl)-2-oxo-5-(2-pyridyl)-1H-1,4-benzodiazepin-3-yl]-3-(3-dimethylaminophenyl)urea]
Gastric Acid Secretion Inhibitory Ratio/Dose ([1]; dose 1 µmol/kg): 83% (1 µmol/kg) | Gastric Acid Secretion Inhibitory Ratio/Dose [2]: 76% (0.1 µmol/kg) | IC50 (CCK-B receptor): 2.14 nM
